pEC50: −log10 of the molar value. Where two headings read alike, the source gives them in different places.
Experiments:
Bmi-1 protein = test: Sandwich ELISA Assay (Bmi-1 protein level in HT-1080 cells after compound treatment); type: cell-based
Procedure, shortened: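 HT-1080 cells exposed to compounds for 40–48 h at 37 °C (0.5% DMSO final), then lysed. Bmi-1 in lysates measured by sandwich ELISA (mouse monoclonal capture, rabbit anti-Bmi-1 detection, HRP anti-rabbit, TMB), read at OD450 with OD570 reference against a recombinant Bmi-1 standard curve (0–8000 pg/mL).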

[1] = Table 1, Bmi-1 sandwich ELISA, read-out: ELISA EC50 value for Bmi-1 protein

Row | melting point [°C] | pEC50 (Bmi-1 protein; [1]) | SMILES | pEC50 (Bmi-1 protein; read-out: ELISA EC50 value for Bmi-1 protein, Table 1, Bmi-1 sandwich ELISA)
1 | 184 to 186 | > 9.00 | COc1ccc(Nc2cncc(-n3c(C)nc4ccc(F)cc43)n2)cc1 [compound 552, 6-(6-fluoro-2-methyl-1H-benzimidazol-1-yl)-N-(4-methoxyphenyl)pyrazin-2-amine] | 
2 | 300 to 303 | 5.52 to 7.00 | Cc1nc2ccc(F)cc2n1-c1cncc(Nc2ccc(C#N)cc2)n1 [compound 555, 4-{[6-(6-fluoro-2-methyl-1H-benzimidazol-1-yl)pyrazin-2-yl]amino}benzonitrile] | 
3 | 198 to 200 | 7.00 to 8.00 | COC(=O)c1ccc(Nc2cncc(-n3c(C)nc4ccc(F)cc43)n2)cc1 [compound 556, methyl 4-{[6-(6-fluoro-2-methyl-1H-benzimidazol-1-yl)pyrazin-2-yl]amino}benzoate] | 
4 | 189 to 191 | 7.00 to 8.00 | Cc1nc2ccc(F)cc2n1-c1cncc(Nc2ccc(N)cc2)n1 [compound 558, N-[6-(6-fluoro-2-methyl-1H-benzimidazol-1-yl)pyrazin-2-yl]benzene-1,4-diamine] | 
5 | 173 to 174 | 5.52 to 7.00 | Cc1cccc(Nc2cncc(-n3c(C)nc4ccc(F)cc43)n2)c1 [compound 560, 6-(6-fluoro-2-methyl-1H-benzimidazol-1-yl)-N-(3-methylphenyl)pyrazin-2-amine] | 
6 | 208 to 210 | 5.52 to 7.00 | Cc1nc2ccc(F)cn2c1-c1cncc(Nc2ccc(F)cc2)n1 [compound 591, 6-(6-fluoro-2-methylimidazo[1,2-a]pyridin-3-yl)-N-(4-fluorophenyl)pyrazin-2-amine] | 
7 | 215 to 218 | 8.00 to 9.00 | Cc1nc2ccc(F)cn2c1-c1cncc(Nc2ccc(Cl)cc2)n1 [compound 593, N-(4-chlorophenyl)-6-(6-fluoro-2-methylimidazo[1,2-a]pyridin-3-yl)pyrazin-2-amine] | 
8 | 188 to 190 | 5.52 to 7.00 | Cc1nc2ccc(F)cn2c1-c1cncc(Nc2cccc(C(F)(F)F)c2)n1 [compound 594, 6-(6-fluoro-2-methylimidazo[1,2-a]pyridin-3-yl)-N-[3-(trifluoromethyl)phenyl]pyrazin-2-amine] | 
9 | 270 to 273 | 7.00 to 8.00 | Cc1nc2ccc(F)cn2c1-c1cncc(Nc2cccc(F)c2)n1 [compound 595, 6-(6-fluoro-2-methylimidazo[1,2-a]pyridin-3-yl)-N-(3-fluorophenyl)pyrazin-2-amine] | 
10 | 270 to 273 | 8.00 to 9.00 | COc1cccc(Nc2cncc(-c3c(C)nc4ccc(F)cn34)n2)c1 [compound 596, 6-(6-fluoro-2-methylimidazo[1,2-a]pyridin-3-yl)-N-(3-methoxyphenyl)pyrazin-2-amine] | 
11 | 272 to 275 | 7.00 to 8.00 | Cc1nc2ccc(F)cn2c1-c1cncc(Nc2cccc(Cl)c2)n1 [compound 597, N-(3-chlorophenyl)-6-(6-fluoro-2-methylimidazo[1,2-a]pyridin-3-yl)pyrazin-2-amine] | 
12 | 218 to 220 | 5.52 to 7.00 | Cc1nc2ccc(F)cn2c1-c1cncc(Nc2ccccc2F)n1 [compound 598, 6-(6-fluoro-2-methylimidazo[1,2-a]pyridin-3-yl)-N-(2-fluorophenyl)pyrazin-2-amine] | 
13 | 218 to 220 | > 9.00 | CCc1nc2ccc(F)cc2n1-c1cncc(Nc2ccc(OC)cc2)n1 [compound 621, 6-(2-ethyl-6-fluoro-1H-benzimidazol-1-yl)-N-(4-methoxyphenyl)pyrazin-2-amine] | 
14 | 223 to 226 | 8.00 to 9.00 | CCc1nc2ccc(F)cc2n1-c1cncc(Nc2ccc(C)cc2)n1 [compound 622, 6-(2-ethyl-6-fluoro-1H-benzimidazol-1-yl)-N-(4-methylphenyl)pyrazin-2-amine] | 

Row | SMILES | melting point [°C] | pEC50 (Bmi-1 protein; [1]) | pEC50 (Bmi-1 protein; read-out: ELISA EC50 value for Bmi-1 protein, Table 1, Bmi-1 sandwich ELISA)
15 | Cc1nc2ccc(F)cn2c1-c1cncc(Nc2ccccc2)n1 [compound 590, 6-(6-fluoro-2-methylimidazo[1,2-a]pyridin-3-yl)-N-phenylpyrazin-2-amine] | 216 to 218 |  | 7.00 to 8.00

Reference: patent US10584115B2, “Substituted pyridine and pyrazine BMI-1 inhibitors” (PTC Therapeutics, Inc., priority 2013, dated 2020)
